From US5232933A, “Method for treatment of neurodegenerative diseases” (R. J. Reynolds Tobacco Company, priority 1992, dated 1993)

Target: high affinity nicotinic receptors
Test: Inhibition of L-[3H]nicotine binding to mouse brain membranes
Parameters: species or system Mice (DBA strain)
Details: 2 hr incubation at 4° C., Ki calculated from IC50 by method of Cheng
Experimental: Mice (DBA strain) were maintained on a 12 hour light/dark cycle and were allowed free access to water and food supplied by Wayne Lab Blox, Madison, Wis. Animals used in the present studies were 60 to 90 days of age and weighed 20 to 25 g. Brain membrane preparations were obtained from pooled brain tissue of both males and females.
Mice were killed by cervical dislocation. Brains were removed and placed on an ice-cold platform. […] Protein was determined by the method of Lowry, et al., J. Biol. Chem., Vol. 193, pp. 265-275 (1951), using bovine serum albumin as the standard.
The binding of L-[^3 H]nicotine was measured using a modification of the method of Romano, et al., Science, Vol 210 pp. 647-650 (1980) as described previously by Marks, et al., Mol. Pharmacol., Vol. 30, pp. 427-436 (1986). The binding of L-[^3 H]nicotine was measured using a 2 hr. incubation at 4° C. […] Nonspecific binding was determined by inclusion of 10 μM nonradioactive nicotine in the incubations. The inhibition of L-[^3 H]nicotine binding by test compounds was determined by including one of eight different concentrations of the test compound in the incubation. […] Inhibition constant (Ki values) were calculated from the IC50 values using the method of Cheng, et al., Biochem. Pharmacol., Vol. 22, pp. 3099-3108 (1973). […]

c1ccc(C2CCCN2)nc1 (racemic) [alpha-nornicotine]
Ki: 5.7 µM
